According to US12551463B2, “Dosing of a Bruton's tyrosine kinase inhibitor” (Loxo Oncology, Inc., priority 2019, dated 2026):
Entries after “also recorded” stand apart in the source; their conditions may differ.

Test: Phase 1/2 clinical study: safety, treatment-emergent adverse events
Assay type: in vivo
Description: This study includes monotherapy as well as combination treatment parts. The monotherapy part includes Phase 1 dose escalation and dose expansion as well as Phase 2. […] Phase 1 dose escalation will proceed prior to start of Phase 1b or Phase 2. Once a recommended Phase 2 dose (RP2D) is identified in Phase 1, enrollment can commence to the Phase 1b combination therapies and Phase 2 monotherapy cohorts.
Dose escalation will follow a 3+3 design starting with a 25 mg QD dose (followed by 50 mg QD (dose level cohort 2), 100 mg QD (dose level cohort 3), 150 mg QD (dose level cohort 4), 200 mg QD (dose level cohort 5), 250 mg QD (dose level cohort 6), and 300 mg QD (dose level cohort 7)). Cycle length will be 28 days.
Any toxicity, regardless of the NCI CTCAE v.5 grade, resulting in discontinuation, does reduction or considered a DLT unless the SRC determines the toxicity if clearly unrelated to study drug (i.e., related to the patient's underlying disease other medical condition or concomitant medications).

## COc1ccc(F)cc1C(=O)NCc1ccc(-c2nn([C@@H](C)C(F)(F)F)c(N)c2C(N)=O)cc1 [BTK-I, (S)-5-amino-3-(4-((5-fluoro-2-methoxybenzamido)methyl)phenyl)-1-(1,1,1-trifluoropropane-2-yl)-1H-pyrazole-4-carboxamide]
25 mg QD (N = 5)
  Abdominal pain (TEAE): 1 (20.0) n(%)
  Anaemia (TEAE): 0 (0.0) n(%)
  Back pain (TEAE): 0 (0.0) n(%)
  Constipation (TEAE): 0 (0.0^ n(%)
  Contusion (TEAE): 0 (0.0) n(%)
  Cough (TEAE): 3 (60.0) n(%)
  Diarrhoea (TEAE): 3 (60.0) n(%)
  Dizziness (TEAE): 2 (40.0) n(%)
  Dyspnoea (TEAE): 0 (0.0) n(%)
  Fatigue (TEAE): 3 (60.0) n(%)
  Headache (TEAE): 2 (40.0) n(%)
  Nausea (TEAE): 2 (40.0) n(%)
  Neutropenia (TEAE): 0 (0.0) n(%)
  Neutrophil count decreased (TEAE): 1 (20.0) n(%)
  Oedema peripheral (TEAE): 1 (20.0) n(%)
  Rash maculopapular (TEAE): 0 (0.0) n(%)
  Subjects with Any TEAEs: 5 (100.0) n(%)
  Upper respiratory tract infection (TEAE): 1 (20.0) n(%)
25 mg to 300 mg QD
  dose limiting toxicities: no dose limiting toxicities or dose reductions; also recorded: DLTS have not been observed
50 mg QD (N = 6)
  Abdominal pain (TEAE): 0 (0.0) n(%)
  Anaemia (TEAE): 0 (0.0) n(%)
  Back pain (TEAE): 0 (0.0) n(%)
  Constipation (TEAE): 0 (0.0) n(%)
  Contusion (TEAE): 2 (33.3) n(%)
  Cough (TEAE): 2 (33.3) n(%)
  Diarrhoea (TEAE): 1 (16.7) n(%)
  Dizziness (TEAE): 0 (0.0) n(%)
  Dyspnoea (TEAE): 0 (0.0) n(%)
  Fatigue (TEAE): 3 (50.0) n(%)
  Headache (TEAE): 1 (16.7) n(%)
  Nausea (TEAE): 2 (33.3) n(%)
  Neutropenia (TEAE): 1 (16.7) n(%)
  Neutrophil count decreased (TEAE): 0 (0.0) n(%)
  Oedema peripheral (TEAE): 1 (16.7) n(%)
  Pyrexia (TEAE): 0 (0.0) n(%)
  Rash maculopapular (TEAE): 0 (0.0) n(%)
  Subjects with Any TEAEs: 6 (100.0) n(%)
  Upper respiratory tract infection (TEAE): 3 (50.0) n(%)
100 mg QD (N = 9)
  Abdominal pain (TEAE): 2 (2.2) n(%)
  Anaemia (TEAE): 2 (22.2) n(%)
  Back pain (TEAE): 0 (0.0) n(%)
  Constipation (TEAE): 0 (0.0) n(%)
  Contusion (TEAE): 0 (0.0) n(%)
  Cough (TEAE): 0 (0.0) n(%)
  Diarrhoea (TEAE): 3 (33.3) n(%)
  Dizziness (TEAE): 1 (11.1) n(%)
  Dyspnoea (TEAE): 2 (22.2) n(%)
  Fatigue (TEAE): 2 (22.2) n(%)
  Headache (TEAE): 1 (11.1) n(%)
  Nausea (TEAE): 1 (11.1) n(%)
  Neutropenia (TEAE): 0 (0.0) n(%)
  Neutrophil count decreased (TEAE): 0 (0.0) n(%)
  Oedema peripheral (TEAE): 0 (0.0) n(%)
  Pyrexia (TEAE): 1 (11.1) n(%)
  Rash maculopapular (TEAE): 1 (11.1) n(%)
  Subjects with Any TEAEs: 8 (88.9) n(%)
  Upper respiratory tract infection (TEAE): 1 (11.1) n(%)
150 mg QD (N = 20)
  Abdominal pain (TEAE): 1 (5.0) n(%)
  Anaemia (TEAE): 3 (15.0) n(%)
  Back pain (TEAE): 5 (25.0) n(%)
  Constipation (TEAE): 5 (25.0) n(%)
  Contusion (TEAE): 3 (15.0) n(%)
  Cough (TEAE): 3 (15.0) n(%)
  Diarrhoea (TEAE): 5 (25.0) n(%)
  Dizziness (TEAE): 2 (10.0) n(%)
  Dyspnoea (TEAE): 2 (10.0) n(%)
  Fatigue (TEAE): 3 (15.0) n(%)
  Headache (TEAE): 4 (20.0) n(%)
  Nausea (TEAE): 1 (5.0) n(%)
  Neutropenia (TEAE): 4 (20.0) n(%)
  Neutrophil count decreased (TEAE): 3 (15.0) n(%)
  Oedema peripheral (TEAE): 3 (15.0) n(%)
  Pyrexia (TEAE): 1 (5.0) n(%)
  Rash maculopapular (TEAE): 2 (10.0) n(%)
  Subjects with Any TEAEs: 20 (100.0) n(%)
  Upper respiratory tract infection (TEAE): 7 (35.0) n(%)
200 mg QD (N = 238)
  Abdominal pain (TEAE): 14 (5.9) n(%)
  Anaemia (TEAE): 16 (6.7) n(%)
  Back pain (TEAE): 14 (5.9) n(%)
  Constipation (TEAE): 14 (5.9) n(%)
  Contusion (TEAE): 28 (11.8) n(%)
  Cough (TEAE): 15 (6.3) n(%)
  Diarrhoea (TEAE): 33 (13.9) n(%)
  Dizziness (TEAE): 10 (4.2) n(%)
  Dyspnoea (TEAE): 16 (6.7) n(%)
  Fatigue (TEAE): 39 (16.4) n(%)
  Headache (TEAE): 14 (5.9) n(%)
  Nausea (TEAE): 16 (6.7) n(%)
  Neutropenia (TEAE): 15 (6.3) n(%)
  Neutrophil count decreased (TEAE): 10 (4.2) n(%)
  Oedema peripheral (TEAE): 14 (5.9) n(%)
  Pyrexia (TEAE): 17 (7.1) n(%)
  Rash maculopapular (TEAE): 12 (5.0) n(%)
  Upper respiratory tract infection (TEAE): 3 (1.3) n(%)
250 mg QD (N = 25)
  Abdominal pain (TEAE): 0 (0.0) n(%)
  Anaemia (TEAE): 2 (8.0) n(%)
  Back pain (TEAE): 3 (2.0) n(%)
  Constipation (TEAE): 3 (12.0) n(%)
  Contusion (TEAE): 5 (20.0) n(%)
  Cough (TEAE): 3 (12.0) n(%)
  Diarrhoea (TEAE): 5 (20.0) n(%)
  Dizziness (TEAE): 1 (4.0) n(%)
  Dyspnoea (TEAE): 2 (8.0) n(%)
  Fatigue (TEAE): 10 (40.0) n(%)
  Headache (TEAE): 3 (12.0) n(%)
  Nausea (TEAE): 5 (20.0) n(%)
  Neutropenia (TEAE): 1 (4.0) n(%)
  Oedema peripheral (TEAE): 2 (8.0) n(%)
  Pyrexia (TEAE): 2 (8.0) n(%)
  Rash maculopapular (TEAE): 2 (8.0) n(%)
  Subjects with Any TEAEs: 25 (100.0) n(%)
  Upper respiratory tract infection (TEAE): 6 (24.0) n(%)
Overall (N = 323)
  Abdominal pain (TEAE): 20 (6.2) n (%)
  Anaemia (TEAE): 24 (7.4) n (%)
  Back pain (TEAE): 25 (7.7) n (%)
  Constipation (TEAE): 25 (7.7) n (%)
  Contusion (TEAE): 42 (13.0) n (%)
  Cough (TEAE): 29 (9.0) n (%)
  Diarrhoea (TEAE): 55 (17.0) n (%)
  Dizziness (TEAE): 18 (5.6) n (%)
  Dyspnoea (TEAE): 26 (8.0) n (%)
  Fatigue (TEAE): 65 (20.1) n (%)
  Headache (TEAE): 29 (9.0) n (%)
  Nausea (TEAE): 30 (9.3) n (%)
  Neutropenia (TEAE): 24 (7.4) n (%)
  Neutrophil count decreased (TEAE): 22 (6.8) n (%)
  Oedema peripheral (TEAE): 22 (6.8) n (%)
  Pyrexia (TEAE): 23 (7.1) n (%)
  Rash maculopapular (TEAE): 20 (6.2) n (%)
  Subjects with Any TEAEs: 264 (81.7) n (%)
  Upper respiratory tract infection (TEAE): 23 (7.1) n (%)
human, in vivo
  rates of atrial arrhythmias and major bleeding: low rates
  tolerability in patients: appeared to be well tolerated
n=42 of 323 patients
  contusion, treatment emergent adverse event regardless of attribution or grade: 13%
n=55 of 323 patients
  diarrhea, treatment emergent adverse event regardless of attribution or grade: 17%
n=65 of 323 patients
  fatigue, treatment emergent adverse event regardless of attribution or grade: 20%
Up to 300 mg QD
  maximum tolerated dose (MTD): lack of an MTD
